Assay results reported in patent publication US9108923B2, “Compounds, compositions, and methods for cancer therapy” (The Broad Institute, Inc., priority 2012, dated 2015).
Where two headings read alike, the source gives them in different places.

Key:
[1] = stability at room temperature (remark with characterisation data); assay type: physicochemical
BJ vs. BJ-ELR = experiment: Assessment of Cancer/Normal Selective Toxicity (crystal violet); assay type: cell-based, human; conditions: crystal violet staining, 48 h
[2] = system: EJ bladder carcinoma line; experiment: Glutathione Assay (GSH/GSSG-Glo), total cellular glutathione; conditions: EJ cells, 3 h treatment
HeLa cells [3] = experiment: Immunofluorescence Detection of Glutathionylated Proteins; conditions: for elevation of protein glutathionylation (in words): HeLa cells, monoclonal antibody recognizing glutathione
HeLa cells [4] = experiment: Glutathione Assay (GSH/GSSG-Glo), total cellular glutathione; assay type: cell-based, human; conditions: 6 h treatment
HeLa = experiment: ATP Assay (CellTiter-Glo), cellular ATP levels as surrogate for cell viability; assay type: cell-based, human
Procedure: (§1) ATP Assay. […] At that time, media was removed and replaced with a solution of CellTiter-Glo reagent (Promega) in PBS. After ten minutes, luminescence was read using an EnVision multilabel plate reader (Perkin-Elmer) and signal intensity was calculated relative to in-plate DMSO control wells.
(§2) We next sought to determine the performance of the synthetic analogs relative to PL in cells. […] As a second assay, effects of compound treatments on ATP levels, a surrogate for cell viability, were measured after 48 hours.
(§3) Assays were performed in 384-well plates on two human cancer cell lines, H1703 (lung) and HeLa (cervix).

H1703 = experiment: as above; assay type: cell-based, human
Procedure: as §1, §2, §3

[5] = system: H1703 (lung) and HeLa (cervix); experiment: ROS Assay (CM-H2DCF-DA, automated microscopy); assay type: cell-based, human; conditions: 90 minutes after compound treatment
[6] = system: H1703 (lung) and HeLa (cervix); experiment: ATP assay / cellular toxicity, covering both cell lines; assay type: cell-based, human; conditions: two cell lines tested, ATP levels after 48 h
[7] = Homo sapiens, HeLa; Table 1; cellular ATP levels, 48 h; read-out: EC50 HeLa
[8] = Table 2; cellular ATP levels, 48 h; read-out: EC50 HeLa
[9] = Homo sapiens, NCI-H1703; Table 1; cellular ATP levels, 48 h; read-out: EC50 H1703
[10] = Table 2; cellular ATP levels, 48 h; read-out: EC50 H1703
[11] = Homo sapiens, HeLa; Table 2; cellular ATP levels, 48 h; read-out: EC50 HeLa
[12] = Homo sapiens, NCI-H1703; Table 2; cellular ATP levels, 48 h; read-out: EC50 H1703

COc1cc(/C=C/C(=O)N2CCC=C(C#CCN(C)C)C2=O)cc(OC)c1OC [(E)-3-(3-(dimethylamino)prop-1-ynyl)-1-(3-(3,4,5-trimethoxyphenyl)prop-2-enoyl)-5,6-dihydropyridin-2(1H)-one]
stability at room temperature [1]: decomposes slowly at room temperature

S=C=NCCc1ccccc1 [Phenethylisothiocyanate, reference compound]
selective toxicity toward transformed BJ-ELR over BJ fibroblasts (in words) (BJ vs. BJ-ELR): showed selectivity in this assay

COc1cc(/C=C/C(=O)N2CCC=CC2=O)cc(OC)c1OC [compound 1, piperlongumine, reference compound]
decrease in total cellular glutathione [2]: ca. 60%
elevation of protein glutathionylation (in words) (HeLa cells [3]): large and rapid elevations in protein glutathionylation
reversal of protein glutathionylation by 0.1 M dithiothreitol (HeLa cells [3]; treatment with 0.1 M dithiothreitol): could not be reversed
decrease in total glutathione (in words) (HeLa cells [4]): most effective
EC50 (HeLa; Homo sapiens, HeLa, 48 h, read-out: EC50 HeLa): 7.1 µM
EC50 (H1703; Homo sapiens, NCI-H1703, 48 h, read-out: EC50 H1703): 2.8 µM

COc1cc(/C=C/C(=O)N2CCCCC2=O)cc(OC)c1OC [compound 2, 1-[(2E)-3-(3,4,5-trimethoxyphenyl)prop-2-enoyl]piperidin-2-one]
elevation of ROS levels (in words) [5]: neither elevated ROS levels
EC50 (HeLa; [7]): > 20 µM
EC50 (HeLa; [8]): > 20 µM
EC50 (H1703; [9]): > 20 µM
EC50 (H1703; [10]): > 20 µM

COc1cc(/C=C/C(=O)N2CCC=C(C#CC3CC3)C2=O)cc(OC)c1OC [compound 5, (E)-3-(cyclopropylethynyl)-1-(3-(3,4,5-trimethoxyphenyl)prop-2-enoyl)-5,6-dihydropyridin-2(1H)-one]
elevation of protein glutathionylation (in words) (HeLa cells [3]): large and rapid elevations in protein glutathionylation
EC50 (HeLa; [7]): 1.3 µM
EC50 (H1703; [9]): 0.7 µM

COC(=O)CSC1CCN(C(=O)/C=C/c2cc(OC)c(OC)c(OC)c2)C(=O)C1 (stereo not drawn) [compound 25]
elevation of ROS levels (in words) [5]: substantially less potent than PL
viability / cellular toxicity (in words) [6]: substantially less potent than PL at inducing cancer cell death
EC50 (HeLa; read-out: EC50 HeLa; Table 2; cellular ATP levels, 48 h): > 20 µM
EC50 (H1703; read-out: EC50 H1703; Table 2; cellular ATP levels, 48 h): 7.9 µM

COc1cc2c(c(OC)c1OC)CCC(C(=O)N1CCC=CC1=O)=C2 [compound 29, 1-(5,6,7-trimethoxy-3,4-dihydronaphthalene-2-carbonyl)-5,6-dihydropyridin-2(1H)-one]
elevation of ROS levels (in words) [5]: robust enhancement of ROS levels
decrease in total cellular glutathione [2]: ca. 60%
elevation of protein glutathionylation (in words) (HeLa cells [3]): minimal elevation
viability / cellular toxicity (in words) [6]: diminished cell death relative to PL
EC50 (HeLa; [8]): > 20 µM
EC50 (H1703; [10]): 14 µM

O=C1C=CCCN1S(=O)(=O)/C=C/c1ccccc1 [compound 52, 1-{[(E)-2-phenylvinyl]sulfonyl}-5,6-dihydropyridin-2(1H)-one]
selective toxicity toward transformed BJ-ELR over BJ fibroblasts (in words) (BJ vs. BJ-ELR): selectivity comparable to PL
EC50 (HeLa; [8]): 4.1 µM
EC50 (H1703; [10]): 2.7 µM

O=C1C=CCCN1C(=O)CCC(=O)N1CCC=CC1=O [compound 77]
EC50 (HeLa; [11]): 15 µM
EC50 (H1703; [12]): 5.5 µM

O=C1C=CCCN1C(=O)/C=C/c1ccc(/C=C/C(=O)N2CCC=CC2=O)cc1 [compound 78]
EC50 (HeLa; [11]): 0.78 µM
EC50 (H1703; [12]): 0.3 µM
